Results published in patent US9802884B2, “Mixtures of MGDA enantiomers, and process for making such mixtures” (BASF SE, priority 2013, dated 2017).
Read-outs that look alike come from different tables or passages of the source.

Key:
[1] = aqueous solution, room temperature; cited from earlier work
[2] = ambient temperature
Method: The following tolerance tests were performed: 25 g of a 40% by weight aqueous solution of the respective inventive mixture (or of racemic MGDA) were mixed under one hour of stirring with the amount of solid NaOH beads according to table 5. The mixture so obtained was stored at ambient temperature over the period of up to 96 hours. Then, the appearance was characterized by visual inspection.

[3] = minimum temperature for forming a kinetically stable 50% by weight solution, cooled 30° C./h to precipitation, reheated 1° C./h until clear, higher Tsol = lower solubility
Method: In each case, the solubility was calculated to refer to pure MGDA, without hydrate water. The solubility of inventive mixtures and of comparison experiments was determined with an apparatus that allowed heating and cooling down liquid solutions. […] Then, the slurry of crystals of MGDA so obtained was again heated at a speed of 1° C./h until a clear solution was obtained. The slurry/solution was checked for solid particles by visible light scattering detection. […] A higher temperature Tsol correlates with a lower solubility at ambient temperature.

[4] = NaOH added 0 g to 25 g of 40% by weight aqueous solution
[5] = NaOH added 0.5 g to 25 g of 40% by weight aqueous solution
[6] = NaOH added 1.0 g to 25 g of 40% by weight aqueous solution
[7] = NaOH added 1.5 g to 25 g of 40% by weight aqueous solution, * = after 48 hours
[8] = NaOH added 2.0 g to 25 g of 40% by weight aqueous solution, * = after 48 hours
[9] = NaOH added 2.5 g to 25 g of 40% by weight aqueous solution, ** = immediately after addition of NaOH

SMILES | Appearance of test solutions after 96 h of storage [2, 4] | Appearance of test solutions after 96 h of storage [2, 5] | Appearance of test solutions after 96 h of storage [2, 6] | Appearance of test solutions after 96 h of storage [2, 7] | Appearance of test solutions after 96 h of storage [2, 8] | Appearance of test solutions after 96 h of storage [2, 9] | also measured
CC(C(=O)[O-])N(CC(=O)[O-])CC(=O)[O-].[Na+].[Na+].[Na+] (racemic) [Racemic MGDA, methyl glycine diacetic acid (MGDA), reference compound] | clear liquid | clear liquid | clear liquid | turbid* liquid | turbid* liquid | turbid, precipitate** | concentration of solution that can be made and stored [1]: about 40 % by weight; Tsol ([3]; listed as zero): 103.8 °C
CC(C(=O)[O-])N(CC(=O)[O-])CC(=O)[O-].[Na+].[Na+].[Na+] (stereo not shown) [MGDA: 50% ee, methyl glycine diacetic acid (MGDA)] | clear liquid | clear liquid | clear liquid | clear liquid | clear liquid | clear liquid | Tsol ([3]; listed as 50.0): 68.1 °C
CC(C(=O)[O-])N(CC(=O)[O-])CC(=O)[O-].[Na+].[Na+].[Na+] (stereo not shown) [ee value 10.1, methyl glycine diacetic acid (MGDA)] | – | – | – | – | – | – | Tsol ([3]; listed as 10.1): 74.5 °C
CC(C(=O)[O-])N(CC(=O)[O-])CC(=O)[O-].[Na+].[Na+].[Na+] (stereo not shown) [ee value 20.0, methyl glycine diacetic acid (MGDA)] | – | – | – | – | – | – | Tsol ([3]; listed as 20.0): 74.0 °C
CC(C(=O)[O-])N(CC(=O)[O-])CC(=O)[O-].[Na+].[Na+].[Na+] (stereo not shown) [ee value 70.0, methyl glycine diacetic acid (MGDA)] | – | – | – | – | – | – | Tsol ([3]; listed as 70.0): 59.5 °C
CC(C(=O)[O-])N(CC(=O)[O-])CC(=O)[O-].[Na+].[Na+].[Na+] (stereo not shown) [ee value 97.7, methyl glycine diacetic acid (MGDA), reference compound] | – | – | – | – | – | – | Tsol ([3]; listed as 97.7): 37.0 °C
